In patent US20240287079A1, “6-AMINOPYRAZOLOPYRIMIDINE COMPOUND AND PHARMACEUTICAL USE THEREOF” (Japan Tobacco Inc., priority 2021, published 2024):

Biological target: NLRP3 inflammasome (Homo sapiens (Human), UniProt Q96P20)
Test: Evaluation of NLRP3 inflammasome inhibitory activity (inhibition of IL-1β production in LPS/Nigericin-stimulated THP1-Null cells)
Type: cell-based
Conditions: IL-1β production in THP1-Null cells; for IC50: PMA, LPS 1 μg/mL, Nigericin 7.5 μmol/L, AlphaLISA
Procedure: The NLRP3 inflammasome inhibitory activity of test compounds were evaluated on the basis of the inhibitory activity of the IL-1β production in THP1-Null cells (Product Number: thp-null, InvivoGen). […] The supernatant of the culture was removed, and thereto was added media for assay (25 μL/well) containing 1 μg/mL Lipopolysaccharides (Product Number: L2654, Sigma-Aldrich (registered trademark)). […] The supernatant of the culture was removed. […] A solution containing a test compound (20 μL/well) was added to test compound-setting wells. […] The supernatant of the culture was cryonically stored (set at −20° C.) until measurement of IL-1β.
The amount of IL-1β in the culture supernatant was quantitated with AlphaLISA(registered trademark) Human IL-1β Detection Kit (Product Number: AL220C, Perkin Elmer). Fluorescence intensity was measured with a microplate reader EnSpier (Model number: 2300-00J, Perkin Elmer) or EnSight(Model number: HH34000000, Perkin Elmer) according to procedure manuals attached thereto. Inhibition rates of the test compound-setting wells were calculated on the basis of 100% for the blank-setting wells and 0% for the control-setting wells.

Sequence of NLRP3 inflammasome (Q96P20 whole entry): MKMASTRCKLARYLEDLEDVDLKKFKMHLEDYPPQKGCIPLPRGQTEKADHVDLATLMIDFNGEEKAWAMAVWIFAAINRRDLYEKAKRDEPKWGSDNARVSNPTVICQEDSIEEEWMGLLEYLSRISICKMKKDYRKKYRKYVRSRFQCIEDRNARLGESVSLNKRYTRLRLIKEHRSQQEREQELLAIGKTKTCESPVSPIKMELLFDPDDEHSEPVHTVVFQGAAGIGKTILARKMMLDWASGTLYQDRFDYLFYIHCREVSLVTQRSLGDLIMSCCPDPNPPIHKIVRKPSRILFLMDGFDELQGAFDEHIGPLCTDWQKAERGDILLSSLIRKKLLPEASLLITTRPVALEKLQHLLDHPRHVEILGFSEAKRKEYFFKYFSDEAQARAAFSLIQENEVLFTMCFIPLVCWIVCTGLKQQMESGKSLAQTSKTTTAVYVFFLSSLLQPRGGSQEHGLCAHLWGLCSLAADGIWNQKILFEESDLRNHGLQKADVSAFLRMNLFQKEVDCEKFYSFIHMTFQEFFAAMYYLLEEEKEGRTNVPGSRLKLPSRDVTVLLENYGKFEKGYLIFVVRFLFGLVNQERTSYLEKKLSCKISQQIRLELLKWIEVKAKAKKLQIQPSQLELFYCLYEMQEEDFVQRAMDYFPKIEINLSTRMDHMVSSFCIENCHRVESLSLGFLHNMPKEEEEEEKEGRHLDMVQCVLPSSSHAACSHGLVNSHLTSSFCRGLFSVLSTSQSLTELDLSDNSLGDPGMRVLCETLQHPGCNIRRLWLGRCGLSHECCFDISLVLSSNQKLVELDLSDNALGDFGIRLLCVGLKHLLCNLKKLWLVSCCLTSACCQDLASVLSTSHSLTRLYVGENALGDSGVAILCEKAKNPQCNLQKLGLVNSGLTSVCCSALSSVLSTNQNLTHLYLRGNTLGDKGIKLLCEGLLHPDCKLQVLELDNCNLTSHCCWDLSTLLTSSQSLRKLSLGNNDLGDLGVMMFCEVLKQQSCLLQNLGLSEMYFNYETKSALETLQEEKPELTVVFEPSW

With `CC(C)(C)OC(=O)N1CCCN(c2nc3nn(-c4ccc(C(F)(F)F)cc4Cl)cc3c(=O)[nH]2)CC1` [Example 132] the IC50 was 74 nM.

With `O=c1[nH]c(N2CCCNCC2)nc2nn(-c3ccc(C(F)(F)F)cc3Cl)cc12` [Example 133] the IC50 was 63 nM.

In the case of `CC(=O)N1CCCN(c2nc3nn(-c4ccc(C(F)(F)F)cc4Cl)cc3c(=O)[nH]2)CC1` [Example 134], the IC50 is reported as 91 nM.

Molecule `CS(=O)(=O)N1CCCN(c2nc3nn(-c4ccc(C(F)(F)F)cc4Cl)cc3c(=O)[nH]2)CC1` [Example 135] has an IC50 of 43 nM.

`Cc1cc(Br)ccc1-n1cc2c(OC(C)C)nc(N3CCOCC3)nc2n1` [Example 136] gave an IC50 of 230 nM.

`COc1nc(N2CCN(S(C)(=O)=O)CC2)nc2nn(-c3ccc(Br)cc3C)cc12` [Example 137] showed an IC50 of 170 nM.

With `Cc1cc(Br)ccc1-n1cc2c(=O)n(C)c(N3CCN(S(C)(=O)=O)CC3)nc2n1` [Example 138] the IC50 was 140 nM.

`Cc1cc(Br)ccc1-n1cc2c(=O)[nH]c(N3CCN(S(=O)(=O)C4CC4)CC3)nc2n1` [Example 139] gave an IC50 of 5.3 nM.

In the case of `Cc1cc(Br)ccc1-n1cc2c(=O)[nH]c(N3CCN(C(=O)C4CC4)CC3)nc2n1` [Example 140], the IC50 is reported as 5.8 nM.

`COCC(=O)N1CCN(c2nc3nn(-c4ccc(Br)cc4C)cc3c(=O)[nH]2)CC1` [Example 141] showed an IC50 of 9.6 nM.

Work on `Cc1cc(Br)ccc1-n1cc2c(=O)[nH]c(N3CCCOCC3)nc2n1` [Example 142] yielded an IC50 of 22 nM.

Molecule `COCc1cc(Cl)ccc1-n1cc2c(=O)[nH]c(N3CCOCC3)nc2n1` [Example 143] has an IC50 of 59 nM.

Work on `COCc1cc(Cl)ccc1-n1cc2c(=O)[nH]c(N3CCCC3)nc2n1` [Example 144] yielded an IC50 of 24 nM.

For `Cc1cc(Br)cc(C)c1-n1cc2c(=O)[nH]c(N3CCCOCC3)nc2n1` [Example 145], the IC50 was 12 nM.

`Cc1cc(Br)cc(Cl)c1-n1cc2c(=O)[nH]c(N3CCOCC3)nc2n1` [Example 146] showed an IC50 of 9.2 nM.

In the case of `Cc1cc(C2CC2)cc(Cl)c1-n1cc2c(=O)[nH]c(N3CCOCC3)nc2n1` [Example 147], the inhibition at 0.0024 µM (test compound 0.0024 μM) is reported as 54%.

In the case of `Cc1cc(C)c(-n2cc3c(=O)[nH]c(N4CCOCC4)nc3n2)c(Cl)c1` [Example 148], the IC50 is reported as 19 nM.

Work on `Cc1cc(Br)ccc1-n1cc2c(=O)[nH]c(N3CCN(c4ncccn4)CC3)nc2n1` [Example 149] yielded an IC50 of 21 nM.

`Cc1c2c(=O)[nH]c(N3CCCC3)nc2nn1-c1ccc(C(F)(F)F)cc1` [Example 151] was tested, and the IC50 was 50 nM.

`Cc1cc(Br)ccc1-n1cc2c(=O)[nH]c(N3CCN(C4CC4)C(=O)C3)nc2n1` [Example 152] gave an IC50 of 77 nM.

With `Cc1cc(Br)ccc1-n1cc2c(OCCO)nc(N3CCOCC3)nc2n1` [Example 153] the IC50 was 460 nM.

Molecule `COCCOc1nc(N2CCOCC2)nc2nn(-c3ccc(Br)cc3C)cc12` [Example 154] has an IC50 of 590 nM.

Work on `Cc1cc(Br)ccc1-n1cc2c(OCC3CC3)nc(N3CCOCC3)nc2n1` [Example 155] yielded an IC50 of 290 nM.

Molecule `Cc1cc(Br)ccc1-n1cc2c(OCC#N)nc(N3CCOCC3)nc2n1` [Example 156] has an IC50 of 290 nM.

`O=c1[nH]c(N2CCCC2)nc2nn(-c3ncc(C(F)(F)F)cc3Cl)cc12` [Example 157] showed an IC50 of 33 nM.

With `Cc1cc(Cl)cc(CO)c1-n1cc2c(=O)[nH]c(N3CCOCC3)nc2n1` [Example 158] the IC50 was 92 nM.

`Cc1cc(Cl)cc(C=O)c1-n1cc2c(=O)[nH]c(N3CCOCC3)nc2n1` [Example 160] gave an IC50 of 36 nM.

In the case of `COCc1cc(Cl)ccc1-n1cc2c(=O)[nH]c(N3CC(F)(F)C3)nc2n1` [Example 161], the IC50 is reported as 22 nM.

Work on `Cc1cc(Br)ccc1-n1cc2c(=O)n(CCO)c(N3CCOCC3)nc2n1` [Example 163] yielded an IC50 of 47 nM.

Molecule `Cc1cc(Cl)ccc1-n1cc2c(=O)[nH]c(N3CCOCC3)nc2n1` [Example 164] has an IC50 of 29 nM.

Work on `Cc1cc(Cl)ccc1-n1cc2c(=O)[nH]c(N3CCCOCC3)nc2n1` [Example 165] yielded an IC50 of 29 nM.

`Cc1cc(Cl)cc(C)c1-n1cc2c(=O)[nH]c(N3CCOCC3)nc2n1` [Example 166] showed an IC50 of 16 nM.

Work on `Cc1cc(Cl)cc(C(=O)C2CC2)c1-n1cc2c(=O)[nH]c(N3CCOCC3)nc2n1` [Example 167] yielded an IC50 of 430 nM.
